Experimental data published in ChEMBL document CHEMBL2331258, “HR-MALDI-MS imaging assisted screening of β-carboline alkaloids discovered from Mycena metata” (2013).
Calls of active or inactive are those of the source. The rule behind the calls is not given here.

What was measured:
[1] = test system: Bacillus pumilus; assay: Antibacterial activity against Bacillus pumilus assessed as diameter of growth inhibition zone at 0.5 umol at 26 degC after 24 hrs by agar diffusion assay; format: functional
[2] = test system: Brevibacillus brevis; assay: Antibacterial activity against Bacillus brevis NCCB 89173 assessed as diameter of growth inhibition zone at 0.5 umol at 37 degC after 24 hrs by agar diffusion assay; format: functional
[3] = test system: Bacillus subtilis; assay: Antibacterial activity against Bacillus subtilis NCCB 1089 assessed as diameter of growth inhibition zone at 0.5 umol at 37 degC after 24 hrs by agar diffusion assay; format: functional
[4] = test system: Saccharomyces cerevisiae; assay: Antibacterial activity against Saccharomyces cerevisiae assessed as growth inhibition at 0.5 umol at 26 degC after 24 hrs by agar diffusion assay; format: functional, organism-based
[5] = test system: Escherichia coli; assay: Antibacterial activity against Escherichia coli assessed as growth inhibition at 0.5 umol at 37 degC after 24 hrs by agar diffusion assay; format: functional, organism-based
[6] = test system: Bacillus pumilus; assay: Antibacterial activity against Bacillus pumilus assessed as growth inhibition at 0.5 umol at 26 degC after 24 hrs by agar diffusion assay; format: functional, organism-based
[7] = test system: Brevibacillus brevis; assay: Antibacterial activity against Bacillus brevis NCCB 89173 assessed as growth inhibition at 0.5 umol at 37 degC after 24 hrs by agar diffusion assay; format: functional, organism-based
[8] = test system: Cladosporium cucumerinum; assay: Antibacterial activity against Cladosporium cucumerinum CBS 177.54 assessed as growth inhibition at 0.5 umol at 18 degC after 3 to 5 days by agar diffusion assay; format: functional, organism-based
[9] = test system: Bacillus subtilis; assay: Antibacterial activity against Bacillus subtilis NCCB 1089 assessed as growth inhibition at 0.5 umol at 37 degC after 24 hrs by agar diffusion assay; format: functional, organism-based

NCCC[C@H](N)CC(=O)N[C@@H]1[C@@H](O)[C@H](OC(N)=O)[C@@H](CO)O[C@H]1/N=C1\N[C@@H]2[C@H](O)CNC(=O)[C@H]2N1 [NOURSEOTHRICIN]
diameter of the inhibition zone (DIZ) [1]: 25 mm
diameter of the inhibition zone (DIZ) [2]: 25 mm
diameter of the inhibition zone (DIZ) [3]: 14 mm

C[C@@H](O)[C@H](NC(=O)c1cc2c([nH]c3ccc(O)cc32)c(CCC(=O)N2CCC[C@H]2C(=O)O)n1)C(=O)O
growth inhibition (GI) [4]: inactive
growth inhibition (GI) [5]: inactive
growth inhibition (GI) [6]: inactive
growth inhibition (GI) [7]: inactive
growth inhibition (GI) [8]: inactive
growth inhibition (GI) [9]: inactive
